# Test results taken from PMC12203697, “Bioactive constituents from the edible seaweed Halymenia hawaiiana (Rhodophyta)” (Pharmaceutical Biology, 2025).
# Counter-ions that a name gives are not always drawn. Like-named read-outs stand apart in the source and are kept apart here.
# Legend:
# [1] = Ferric-reducing antioxidant power (FRAP) assay
# Experimental: The FRAP assay was used to evaluate antioxidant activity based on the ability of the sample to reduce Fe^3+-TPTZ (2,4,6-tris(2-pyridyl)-S-triazine) to Fe^2+-TPTZ (Benzie and Strain [1996]). This reduction results in a color change from colorless to blue. The absorbance was measured at 593 nm using a Microplate Reader (BioTek ELx800 Instruments Inc. Winooski, Vermont, USA) with the Gen 5 software for FRAP value calculations. A ferrous sulfate heptahydrate (FeSO4 · 7H2O) (Cat. No. 215422, Sigma-Aldrich, USA) standard curve, ranging from 1000 µM to 50 µM, was prepared for the assay. The FRAP reagent consists of 300 mM sodium acetate buffer (pH 3.6) (Cat. No. 90358, Sigma-Aldrich, USA), 10 mM TPTZ solution (Cat. No. T1253, Sigma-Aldrich, USA), and 20 mM ferric (III) chloride hexahydrate (FeCl3 · 6H2O) (Cat. No. 236489, Sigma-Aldrich, USA) in a 10:1:1 ratio, respectively, and heated to 37 °C for ten minutes before use. A blank was measured at 593 nm with 150 µL FRAP reagent added to each well of a 96-well microtiter plate. Samples (20 µL of each sample) (1, 0.5, 0.25 mg/mL) and ascorbic acid (Sigma-Aldrich, Cat. No. A4403) positive control (1 mg/mL) were added in triplicates. Reducing capacity was expressed by FRAP values in an µM FeSO4/µg sample unit.
# MRSA HBP10 = test: Antibacterial MIC, broth microdilution with resazurin; type: cell-based, Staphylococcus aureus
# Text: (§1) Methicillin-resistant Staphylococcus aureus (MRSA), methicillin-susceptible S. aureus (MSSA), and Gram-negative clinical isolates of bacteria [Escherichia coli (9637) and Serratia marcescens ATCC 13880] were used for this study. […] MSSA HBP10, MSSA LUU7, MSSA R113, S. aureus ONE9, and MSSA POB2 were isolated in Hawaiʻi (Gerken et al. [2021]). Mueller Hinton Broth (MHB, GTIN:00382902979630, Becton, Dickinson and Company, Franklin Lakes, NJ, USA) and Mueller Hinton Agar (MHA, GTIN:00382902252504, Becton, Dickinson and Company, Franklin Lakes, NJ, USA,) were used for bacterial inoculation. MRSA was a pathogen strain causing hospital-acquired infections in 1982. This strain easily acquires resistance to antibiotics, such as vancomycin. MSSA strains isolated from the Island of Hawaiʻi included: Honolʻii Beach Park (HBP10) carry the genes erm(C), aph(3′)-III, and mecA, which provide resistance to macrolide, aminoglycoside, and beta-lactam antibiotics, respectively; Wailuku River (LUU7) which contains the blaZ gene (beta-lactam resistance) (Gerken et al. [2021]). Richardson’s Beach Park (R113) and Onekahakaha (ONE9) which is known for its virulence factors (hlgA, hlgB, hlgC, lukD, and lukE).
# (§2) The minimum inhibitory concentrations (MICs) were determined using a two-fold serial dilution method with MHB following the recommendations of the Clinical and Laboratory Standards Institute (CLSI [2012]; Elshikh et al. [2016]). In brief, serial two-fold dilutions of the samples in DMSO were mixed with MHB in a 96-well microplate. Then, 50 µL of bacteria suspension was added to each well, resulting in a final concentration of 1 × 10^4 colony-forming units/well. The plates were incubated at 35–37 °C for 18–24 hr. After incubation, 10 µL of 0.18% resazurin (Cat. No. R7017, Sigma-Aldrich, USA) was added to each well (Elshikh et al. [2016]). The MIC was assessed within 2–3 hr after the addition of resazurin. All antimicrobial assays were performed in triplicate, using vancomycin (Cat. No. SBR00001, Sigma-Aldrich, USA) and gentamicin (Cat. No. G1397, Sigma-Aldrich, USA) as standard controls.
# MRSA POB2 = test: as above; type: cell-based, Staphylococcus aureus
# Text: as §1, §2
# S. marcescent = test: as above; type: cell-based, Serratia marcescens; conditions: Gram-negative
# Text: as §1, §2
# E. coli = test: as above; type: cell-based; conditions: Escherichia coli, Gram-negative
# Text: as §1, §2
# [2] = system: LPS-induced nitric oxide (NO) production in RAW 264.7 cells; test: Inhibition of NO generation in LPS-induced RAW 264.7 cells (Griess); type: cell-based, murine; conditions: Mus musculus, RAW264.7; RAW 264.7 cells, LPS 1 μg/mL, adjusted for cell viability; read-out: IC50, inhibition of LPS-induced NO production
# Experimental: The nitrite concentration in the culture medium was measured to indicate nitric oxide (NO) production as previously described (Min et al. [2009]). The murine macrophage RAW 264.7 cell line was obtained from ATCC, Manassas, VA, USA, and maintained in Dulbecco’s modified Eagle’s medium supplemented with 10% heat-inactivated FBS (Cat. No. A5670801, Gibco BRL Co, Grand Island, NY, USA), penicillin G (100 units/mL) (Cat. No. P7794, Sigma-Aldrich, USA), streptomycin (100 µg/mL) (Cat. No. S9137, Sigma-Aldrich, USA), and L-glutamine (2 mM) (Cat. No. 25030081, Gibco BRL Co, Grand Island, NY, USA). In brief, RAW 264.7 cells were seeded at a density of 4 × 10^4 cells/well in phenol red-free media (Cat. No. 11835030, Gibco, USA) in a 96-well plate, and incubated in a humidified incubator with 5% CO2 at 37 °C for 24 hr. […] The concentration of nitric oxide production was assessed using the Griess reagent, which consists of a 1:1 (v/v) mixture of 1% sulfanilamide (Cat No. A13001, Alfa Aesar, Massachusetts, USA) in H3PO4 and N-(1-naphthyl)ethylenediamine dihydrochloride (Cat. No. 102397, MP Biomedicals, USA). Absorbance was recorded with a microplate reader (SynergyMx, BioTeK, Winooski, VT, USA) at 540 nm. A standard curve was created using sodium nitrite (1–100 μM) (Cat. No. 44227, Alfa Aesar, Massachusetts, USA). A sulforhodamine B (SRB) assay was employed to assess the cellular viability of the samples with RAW 264.7 cells under a similar experimental setup. The final % inhibition of NO production was adjusted based on cell viability.
# S. aureus CART817 = test: Antibacterial MIC, broth microdilution with resazurin; type: cell-based; conditions: Staphylococcus aureus, CART817
# Experimental: as §2
# S. aureus NEWMAN = test: as above; type: cell-based, Staphylococcus aureus; conditions: Staphylococcus aureus, NEWMAN
# Text: as §1, §2
# MRSA USA300 = test: as above; type: cell-based; conditions: Staphylococcus aureus
# Text: as §1, §2
# MSSA LUU7 = test: as above; type: cell-based; conditions: Staphylococcus aureus, MSSA
# Text: as §1, §2
# MSSA R113 = test: as above; type: cell-based; conditions: Staphylococcus aureus, MSSA
# Text: as §1, §2
# S. aureus 8325-4 = test: as above; type: cell-based; conditions: Staphylococcus aureus, 83254
# Text: as §1, §2
# S. aureus ONE9 = test: as above; type: cell-based; conditions: Staphylococcus aureus, ONE9
# Text: as §1, §2
# [3] = system: A549 human lung carcinoma epithelial cells; test: SRB cytotoxicity assay, A549 cells; conditions: read-out: IC50, cytotoxicity against A549 cells; SRB assay, 72 h exposure
# Experimental: After incubation, cells were fixed with trichloroacetic acid (Cat. No. T4885, Sigma-Aldrich, USA), stained with SRB (Cat. No. S9012, Sigma-Aldrich, USA), and the absorbance was measured at 515 nm. Percent cell death was calculated using the following equation: % Cell death=(ODc−OD0)‐(ODs−OD0)/(ODc−OD0)×100
# OD0 = Optical density of cells before treatment (baseline reading).
# ODC = Optical density of untreated control cells after 72 h.
# ODS = Optical density of cells treated with the test sample after 72 h.
# Non-linear regression analysis was performed using GraphPad Prism to calculate the IC50 value. This value reflects the concentration needed to inhibit cell growth by 50%.
# All data are presented as mean ± standard error of the mean (SEM) and were collected from three separate experiments. Statistical analyses were conducted using Student’s t-test or ANOVA, followed by Tukey’s multiple comparisons test. Significance is indicated by *p < 0.05, **p < 0.01, and ***p < 0.001.
compound,measurement,setting,value
"CCCCCCCCC1CC1CCCCCCCC(=O)O (stereo not drawn) [Compound 7, dihydrosterculic acid]",FRAP,[1]; FeSO4 standard curve,230.06 µM
same,FRAP,[1]; µM FeSO4/µg sample,2.88 ± 0.03 µM/µg
same,MIC,"MRSA HBP10; MRSA HBP10, Gram-positive",Inactive
same,MIC,"MRSA POB2; MRSA POB2, Gram-positive",Inactive
same,MIC,S. marcescent,Inactive
"CCCCCCCC/C=C/CCCCCCC(O)C(=O)OC (stereo not drawn) [Compound 8, methyl (9E)-2-hydroxy-9-octadecenoate]",MIC,"MRSA HBP10; MRSA HBP10, Gram-positive",Inactive
same,MIC,"MRSA POB2; MRSA POB2, Gram-positive",Inactive
same,MIC,S. marcescent,Inactive
"CNC(C)C1CCC(N)C(OC2C(N)CC(N)C(OC3OCC(C)(O)C(NC)C3O)C2O)O1 (stereo not drawn) [Gentamicin, gentamicin, reference compound]",MIC,E. coli,0.25 µg/mL
same,MIC,"S. marcescent; Serratia marcescens, read-out: MIC",0.25 µg/mL
"[H]/N=C(/NC)NCCC[C@H](N)C(=O)O [L-NMMA, L-N-Monomethyl Arginine citrate, reference compound]",IC50,[2],43.5 ± 1.8 µM
"CN[C@H](CC(C)C)C(=O)N[C@H]1C(=O)N[C@@H](CC(N)=O)C(=O)N[C@H]2C(=O)N[C@H]3C(=O)N[C@H](C(=O)N[C@H](C(=O)O)c4cc(O)cc(O)c4-c4cc3ccc4O)[C@H](O)c3ccc(c(Cl)c3)Oc3cc2cc(c3O[C@@H]2O[C@H](CO)[C@@H](O)[C@H](O)[C@H]2O[C@H]2C[C@](C)(N)[C@H](O)[C@H](C)O2)Oc2ccc(cc2Cl)[C@H]1O [Vancomycin, vancomycin, reference compound]",MIC,S. aureus CART817,1 µg/mL
same,MIC,"MRSA HBP10; Staphylococcus aureus, MRSA",1 µg/mL
same,MIC,"MRSA POB2; Staphylococcus aureus, MRSA",0.5 µg/mL
same,MIC,S. aureus NEWMAN,0.5 µg/mL
same,MIC,MRSA USA300,0.5 µg/mL
same,MIC,MSSA LUU7,0.5 µg/mL
same,MIC,MSSA R113,0.5 µg/mL
same,MIC,S. aureus 8325-4,0.5 µg/mL
same,MIC,S. aureus ONE9,0.5 µg/mL
"N.N.[Cl][Pt][Cl] [cisplatin, Cisplatin, reference compound]",IC50,[3],4.2 ± 0.3 µM
